{"source": "patent US12383533B2", "about": "(Frost Biologic, Inc., priority 2014, dated 2025)", "key": {"A2780 cells": {"test_system": "A2780 cells", "test": "Cell Viability Assay (ATPlite 1step), A2780", "format": "cell-based", "settings": "Homo sapiens, 72 hours; for percent inhibition of cell viability at 4 µM: A2780, 4 uM compound, read-out: Cell Viability % inhibition A2780 (4 uM Cpd); for percent inhibition of cell viability at 20 µM: A2780, 20 uM compound, read-out: Cell Viability % inhibition A2780 (20 uM Cpd)", "procedure,_shortened": "(§1)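 Cells seeded at 1000/well, grown 24 h at 37 °C/5% CO2, then exposed to compounds (DMSO stock diluted in media) for 72 h; viability read by ATPlite 1step luminescence. A2780 and PC3 in RPMI, MCF-7 in K-12F, each with 10% FBS.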"}, "porcine neuronal tubulin": {"test_system": "porcine neuronal tubulin", "test": "Tubulin Polymerization Assay", "format": "biochemical", "settings": "porcine tubulin 2.0 mg/ml, 37° C., fluorescence; read-out: IC50 (tubulin polymerization, from Vmax)", "source_text": "Tubulin Polymerization Assay\nThe Tubulin Polymerization Assay uses porcine neuronal tubulin and measurements are based on fluorescence enhancement due to the incorporation of a fluorescent reporter into microtubules as polymerization occurs. The assay generates a polymerization curve representing the three phases of microtubule formation (nucleation, growth and equilibrium). IC50 values for tested compounds can be generated from the observed polymerization curves.\nProcedure: All compounds dilutions (in DMSO) were prepared prior to the following steps. A Molecular Devices M2 plate reader was set to 37° C. Once the internal temperature of the plate reader reached 37° C. a 96 well plate (Corning Costar, at. #3686) was placed in the fluorimeter and allowed to warm to 37° C. for 30 minutes. A total of 10 mg of porcine tubulin was resuspended in […] of Polymerization Buffer [Buffer 1 (80 mM PIPES pH 6.9, 2.0 mM MgCl2, 0.5 mM EGTA, 1.0 mM GTP and 10 μM fluorescent reporter) supplemented with 20% glycerol] to generate a 2.0 mg/ml tubulin stock and this was kept on ice. The 50× compound stocks in 100% DMSO were spotted 1 μl/well in duplicate into the wells of the 96-well plate at 37° C. and allowed to re-warm for 5 minutes at 37° C. During this incubation the 2.0 mg/ml tubulin stock was placed in a disposable plastic trough and allowed to warm briefly at room temperature. To initiate the reaction, 50 μl/well of 2.0 mg/ml tubulin in Polymerization Buffer was added to each well using a multi-channel pipettor and the fluorescence measurements were started immediately.\nThe maximal velocity (Vmax) of tubulin polymerization was determined using linear regression of the averaged fluorescence data at each time point using GraphPad Prism 5.0 software. The Vmax determinations for each compound at each concentration were then normalized to reactions that contained DMSO (2% final concentration) but no test compounds. This converted the data to % Activity, which refers to the percent of the Vmax of an uninhibited reaction. The concentration response curves were then plotted as the % Activity versus the Log 10 of the compound concentration in micromolar and fit by non-linear regression to a 4-parameter sigmoidal dose-response equation using GraphPad Prism 5.0 software to determine the IC50 for each compound."}, "MCF-7 cells": {"test_system": "MCF-7 cells", "test": "Cell Viability Assay (ATPlite 1step), MCF-7", "format": "cell-based", "settings": "Homo sapiens, MCF7, 72 hours; for percent inhibition of cell viability at 4 µM: MCF-7, 4 uM compound, read-out: Cell Viability % inhibition MCF-7 (4 uM Cpd); for percent inhibition of cell viability at 20 µM: MCF-7, 20 uM compound, read-out: Cell Viability % inhibition MCF-7 (20 uM Cpd)", "procedure": "Cell Viability Assay Protocol\nCells were trypsinized, counted, and re-seeded into a 384-well tissue culture plate at 1000 cells per well in […] media. Cells were incubated at 37° C. in an atmosphere of 5% CO2 for 24 hours. Experimental compounds, initially dissolved in DMSO and diluted further in media were added to the wells and incubated for 72 hours. Cell viability was measured using the ATPlite 1step Luminescence Detection Assay system (Perkin Elmer) as described in the Assay kit instructions.\nCell Culture Lines and Media: (1) A2780 cells were cultured in RPMI media with 10% FBS and 1% antibiotics. Cells were typically split every 3-5 days at a 1:10 dilution; (2) PC3 cells were cultured in RPMI media with 10% FBS and 1% antibiotics. Cells were typically split every 3-5 days at a 1:4 dilution; (3) MCF-7 cells were grown in K-12F media with 10% FBS and 1% antibiotics. Cells were typically split every 3-5 days at a 1:10 dilution."}, "PC3 cells": {"test_system": "PC3 cells", "test": "Cell Viability Assay (ATPlite 1step), PC3", "format": "cell-based", "settings": "Homo sapiens, PC-3, 72 hours; for percent inhibition of cell viability at 4 µM: PC3, 4 uM compound, read-out: Cell Viability % inhibition PC3 (4 uM Cpd); for percent inhibition of cell viability at 20 µM: PC3, 20 uM compound, read-out: Cell Viability % inhibition PC3 (20 uM Cpd)", "procedure,_shortened": "as §1"}}}
{"smiles": "Cc1ncc(C(=O)Nc2ccc(-c3ccsc3)cn2)cn1", "note": "[Compound 61, 2-methyl-N-[5-(thiophen-3-yl)pyridin-2-yl]pyrimidine-5-carboxamide]", "values": [{"measurement": "percent inhibition of cell viability at 4 µM", "setting": "A2780 cells", "value": 86.5, "unit": "%"}, {"measurement": "percent inhibition of cell viability at 20 µM", "setting": "A2780 cells", "value": 89.7, "unit": "%"}, {"measurement": "IC50", "setting": "porcine neuronal tubulin", "value": 260, "unit": "nM"}, {"measurement": "percent inhibition of cell viability at 4 µM", "setting": "MCF-7 cells", "value": 73.3, "unit": "%"}, {"measurement": "percent inhibition of cell viability at 20 µM", "setting": "MCF-7 cells", "value": 72.9, "unit": "%"}, {"measurement": "percent inhibition of cell viability at 4 µM", "setting": "PC3 cells", "value": 58.3, "unit": "%"}, {"measurement": "percent inhibition of cell viability at 20 µM", "setting": "PC3 cells", "value": 70.6, "unit": "%"}]}
{"smiles": "Cc1ncc(C(=O)Nc2ccc(-c3cccc(S(=O)(=O)C4CC4)c3)cn2)cn1", "note": "[Compound 63, N-{5-[3-(cyclopropylsulfonyl)phenyl]pyridin-2-yl}-2-methylpyrimidine-5-carboxamide]", "values": [{"measurement": "percent inhibition of cell viability at 4 µM", "setting": "A2780 cells", "value": 85.6, "unit": "%"}, {"measurement": "percent inhibition of cell viability at 20 µM", "setting": "A2780 cells", "value": 88, "unit": "%"}, {"measurement": "IC50", "setting": "porcine neuronal tubulin", "value": 240, "unit": "nM"}, {"measurement": "percent inhibition of cell viability at 4 µM", "setting": "MCF-7 cells", "value": 59.1, "unit": "%"}, {"measurement": "percent inhibition of cell viability at 20 µM", "setting": "MCF-7 cells", "value": 65.1, "unit": "%"}, {"measurement": "percent inhibition of cell viability at 4 µM", "setting": "PC3 cells", "value": 61.4, "unit": "%"}, {"measurement": "percent inhibition of cell viability at 20 µM", "setting": "PC3 cells", "value": 67.6, "unit": "%"}]}
{"smiles": "Cc1ncc(C(=O)Nc2ccc(-c3cccc(S(=O)(=O)C4CC4)c3)c(C)n2)cn1", "note": "[Compound 64, N-{5-[3-(cyclopropylsulfonyl)phenyl]-6-methylpyridin-2-yl}-2-methylpyrimidine-5-carboxamide]", "values": [{"measurement": "percent inhibition of cell viability at 4 µM", "setting": "A2780 cells", "value": 80, "unit": "%"}, {"measurement": "percent inhibition of cell viability at 20 µM", "setting": "A2780 cells", "value": 81.5, "unit": "%"}, {"measurement": "IC50", "setting": "porcine neuronal tubulin", "value": 120, "unit": "nM"}, {"measurement": "percent inhibition of cell viability at 4 µM", "setting": "MCF-7 cells", "value": 73.5, "unit": "%"}, {"measurement": "percent inhibition of cell viability at 20 µM", "setting": "MCF-7 cells", "value": 74.5, "unit": "%"}, {"measurement": "percent inhibition of cell viability at 4 µM", "setting": "PC3 cells", "value": 59.4, "unit": "%"}, {"measurement": "percent inhibition of cell viability at 20 µM", "setting": "PC3 cells", "value": 62.7, "unit": "%"}]}
{"smiles": "Cc1ncc(C(=O)Nc2ncc(-c3cccc(OC4CC4)c3)cc2F)cn1", "note": "[Compound 66, N-{5-[3-(cyclopropyloxy)phenyl]-3-fluoropyridin-2-yl}-2-methylpyrimidine-5-carboxamide]", "values": [{"measurement": "percent inhibition of cell viability at 4 µM", "setting": "A2780 cells", "value": 89, "unit": "%"}, {"measurement": "percent inhibition of cell viability at 20 µM", "setting": "A2780 cells", "value": 88.4, "unit": "%"}, {"measurement": "IC50", "setting": "porcine neuronal tubulin", "value": 3840, "unit": "nM"}, {"measurement": "percent inhibition of cell viability at 4 µM", "setting": "MCF-7 cells", "value": 75, "unit": "%"}, {"measurement": "percent inhibition of cell viability at 20 µM", "setting": "MCF-7 cells", "value": 76, "unit": "%"}, {"measurement": "percent inhibition of cell viability at 4 µM", "setting": "PC3 cells", "value": 66, "unit": "%"}, {"measurement": "percent inhibition of cell viability at 20 µM", "setting": "PC3 cells", "value": 70.6, "unit": "%"}]}
{"smiles": "Cc1ncc(C(=O)Nc2ncc(-c3cccc(C4CC4)c3)cc2F)cn1", "note": "[Compound 67, N-[5-(3-cyclopropylphenyl)-3-fluoropyridin-2-yl]-2-methylpyrimidine-5-carboxamide]", "values": [{"measurement": "percent inhibition of cell viability at 4 µM", "setting": "A2780 cells", "value": 87.1, "unit": "%"}, {"measurement": "percent inhibition of cell viability at 20 µM", "setting": "A2780 cells", "value": 87.9, "unit": "%"}, {"measurement": "IC50", "setting": "porcine neuronal tubulin", "value": 2420, "unit": "nM"}, {"measurement": "percent inhibition of cell viability at 4 µM", "setting": "MCF-7 cells", "value": 60, "unit": "%"}, {"measurement": "percent inhibition of cell viability at 20 µM", "setting": "MCF-7 cells", "value": 63.7, "unit": "%"}, {"measurement": "percent inhibition of cell viability at 4 µM", "setting": "PC3 cells", "value": 56, "unit": "%"}, {"measurement": "percent inhibition of cell viability at 20 µM", "setting": "PC3 cells", "value": 61.6, "unit": "%"}]}
{"smiles": "Cc1ncc(C(=O)Nc2ncc(-c3ccsc3)cc2F)cn1", "note": "[Compound 69, N-[3-fluoro-5-(thiophen-3-yl)pyridin-2-yl]-2-methylpyrimidine-5-carboxamide]", "values": [{"measurement": "percent inhibition of cell viability at 4 µM", "setting": "A2780 cells", "value": 84.7, "unit": "%"}, {"measurement": "percent inhibition of cell viability at 20 µM", "setting": "A2780 cells", "value": 90.1, "unit": "%"}, {"measurement": "IC50", "setting": "porcine neuronal tubulin", "value": 2350, "unit": "nM"}, {"measurement": "percent inhibition of cell viability at 4 µM", "setting": "MCF-7 cells", "value": 56.2, "unit": "%"}, {"measurement": "percent inhibition of cell viability at 20 µM", "setting": "MCF-7 cells", "value": 61.3, "unit": "%"}, {"measurement": "percent inhibition of cell viability at 4 µM", "setting": "PC3 cells", "value": 57.6, "unit": "%"}, {"measurement": "percent inhibition of cell viability at 20 µM", "setting": "PC3 cells", "value": 64.5, "unit": "%"}]}
{"smiles": "Cc1ncc(C(=O)Nc2ncc(-c3cccc(S(=O)(=O)C4CC4)c3)cc2F)cn1", "note": "[Compound 70, N-{5-[3-(cyclopropylsulfonyl)phenyl]-3-fluoropyridin-2-yl}-2-methylpyrimidine-5-carboxamide]", "values": [{"measurement": "percent inhibition of cell viability at 4 µM", "setting": "A2780 cells", "value": 86.3, "unit": "%"}, {"measurement": "percent inhibition of cell viability at 20 µM", "setting": "A2780 cells", "value": 87.8, "unit": "%"}, {"measurement": "IC50", "setting": "porcine neuronal tubulin", "value": 10, "unit": "nM"}, {"measurement": "percent inhibition of cell viability at 4 µM", "setting": "MCF-7 cells", "value": 61.1, "unit": "%"}, {"measurement": "percent inhibition of cell viability at 20 µM", "setting": "MCF-7 cells", "value": 66.1, "unit": "%"}, {"measurement": "percent inhibition of cell viability at 4 µM", "setting": "PC3 cells", "value": 58.4, "unit": "%"}, {"measurement": "percent inhibition of cell viability at 20 µM", "setting": "PC3 cells", "value": 65, "unit": "%"}]}
